Assay type in all cases: biochemical
In assay [1] the target is T1, human JAK1 (a.a. 837-1142) (Homo sapiens, UniProt P23458).
T1 construct: human JAK1 (a.a. 837-1142); His tag (N); made in house; host or cells: insect cells (baculovirus)
Kind of assay: In vitro JAK kinase assay (HTRF, phosphorylation of a biotinylated peptide), JAK1. Conditions: read-out: JAK1 IC50. The method in brief: (§1)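 Kinase activity was measured as phosphorylation of a biotinylated peptide, with ATP at 90 μM for JAK1, 30 μM for JAK2 and 3 μM for JAK3. Reactions ran 1 hr at room temperature, were stopped with EDTA plus SA-APC and Eu-Py20, and were read by HTRF after 40 minutes of antibody binding.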
For orientation: TR-FRET usually uses a lanthanide donor and a delayed reading to cut background.

Assay [2] has as its target T2, human JAK2 (a.a. 828-1132) (Homo sapiens, UniProt O60674).
T2 construct: JAK2 (a.a. 828-1132); His tag (N); made in house; host or cells: insect cells (baculovirus)
Kind of assay: In vitro JAK kinase assay (HTRF, phosphorylation of a biotinylated peptide), JAK2. The gist of the method:
as §1

The target in assay [3] is T3, human JAK3 (a.a. 781-1124) (Homo sapiens, UniProt P52333).
T3 construct: JAK3 (a.a. 781-1124); His tag (N); made in house; host or cells: insect cells (baculovirus)
Kind of assay: In vitro JAK kinase assay (HTRF, phosphorylation of a biotinylated peptide), JAK3. The gist of the method: as §1

The target of a further assay is TYK2 (Homo sapiens, UniProt P29597). Kind of assay: TYK2 kinase inhibition (Table A1).
Assay [4] has as its target T4, Recombinant Human Anaplastic Lymphoma Kinase (Homo sapiens, UniProt Q9UM73).
T4 construct: purchased Invitrogen, Carlsbad, Calif
As to the kind of experiment: ALK HTRF kinase assay. The gist of the method:
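Recombinant human ALK phosphorylated a biotinylated synthetic peptide. Phosphotyrosine was detected by TR-FRET between a Eu-labelled anti-phosphotyrosine antibody and streptavidin-allophycocyanin. IC50 values came from fitting signal against inhibitor concentration to a four-parameter logistic equation with variable Hill slope.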

Setting [5] is: compound at a concentration of 500 nM or 1 mM (not specified), cells shown as percentage.
Where [6] appears, read: Table B1, cells without percent sign.
Setting [7] is: method AA1 (90 μM ATP) or AA2 (1000 μM ATP), not stated per value.
[8] abbreviates: method AA1 (30 μM ATP) or AA2 (1000 μM ATP), not stated per value.
Where [9] appears, read: method AA1 (3 μM ATP) or AA2 (1000 μM ATP), not stated per value.
The mark [10] stands for this setting: compound at 500 nM or 1 mM, 90 μM ATP.

Each structure is given as a SMILES string. Where a name gives a salt, the structure may show the parent alone. Read-outs that look alike come from different tables or passages of the source.

T2 sequence (O60674 828-1132): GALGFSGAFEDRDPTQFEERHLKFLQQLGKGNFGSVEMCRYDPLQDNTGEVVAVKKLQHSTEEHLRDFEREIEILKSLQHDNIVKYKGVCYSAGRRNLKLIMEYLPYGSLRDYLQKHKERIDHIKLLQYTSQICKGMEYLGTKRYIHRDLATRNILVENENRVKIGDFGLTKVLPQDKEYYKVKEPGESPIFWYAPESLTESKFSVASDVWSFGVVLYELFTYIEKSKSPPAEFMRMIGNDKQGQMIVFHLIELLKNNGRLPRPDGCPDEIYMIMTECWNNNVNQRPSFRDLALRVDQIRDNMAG
Sequence of TYK2 (P29597 whole entry): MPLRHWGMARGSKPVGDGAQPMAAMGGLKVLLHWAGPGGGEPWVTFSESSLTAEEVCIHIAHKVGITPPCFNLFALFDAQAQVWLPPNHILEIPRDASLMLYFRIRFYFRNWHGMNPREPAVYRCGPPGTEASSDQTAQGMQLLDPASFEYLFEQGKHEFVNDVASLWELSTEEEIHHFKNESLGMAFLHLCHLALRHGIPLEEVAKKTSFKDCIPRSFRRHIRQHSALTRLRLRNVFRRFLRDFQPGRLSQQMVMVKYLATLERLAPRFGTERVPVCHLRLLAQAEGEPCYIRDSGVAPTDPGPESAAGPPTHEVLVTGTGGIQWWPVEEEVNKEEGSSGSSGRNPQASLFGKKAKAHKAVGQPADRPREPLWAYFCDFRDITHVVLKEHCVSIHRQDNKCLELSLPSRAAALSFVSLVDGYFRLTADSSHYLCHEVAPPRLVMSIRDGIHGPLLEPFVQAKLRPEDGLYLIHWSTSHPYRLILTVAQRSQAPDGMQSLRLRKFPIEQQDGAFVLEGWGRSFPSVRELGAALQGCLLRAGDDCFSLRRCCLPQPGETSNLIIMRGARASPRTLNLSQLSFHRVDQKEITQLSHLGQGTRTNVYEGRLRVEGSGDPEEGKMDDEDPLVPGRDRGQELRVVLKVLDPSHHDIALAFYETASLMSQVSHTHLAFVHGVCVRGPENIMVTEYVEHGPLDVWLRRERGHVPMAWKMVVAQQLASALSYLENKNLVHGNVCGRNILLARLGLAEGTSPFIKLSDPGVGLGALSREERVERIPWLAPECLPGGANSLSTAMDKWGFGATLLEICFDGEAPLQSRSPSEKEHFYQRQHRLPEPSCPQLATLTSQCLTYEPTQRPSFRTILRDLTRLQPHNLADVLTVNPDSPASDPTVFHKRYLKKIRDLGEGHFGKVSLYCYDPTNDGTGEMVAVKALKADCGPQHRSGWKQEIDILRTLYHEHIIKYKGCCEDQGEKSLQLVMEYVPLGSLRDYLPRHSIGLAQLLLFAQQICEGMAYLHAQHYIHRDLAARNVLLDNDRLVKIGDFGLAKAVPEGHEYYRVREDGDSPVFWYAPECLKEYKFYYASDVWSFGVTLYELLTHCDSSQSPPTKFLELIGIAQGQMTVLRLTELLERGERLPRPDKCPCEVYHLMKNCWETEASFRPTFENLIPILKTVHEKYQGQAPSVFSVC
T4 sequence (Q9UM73 19-1620): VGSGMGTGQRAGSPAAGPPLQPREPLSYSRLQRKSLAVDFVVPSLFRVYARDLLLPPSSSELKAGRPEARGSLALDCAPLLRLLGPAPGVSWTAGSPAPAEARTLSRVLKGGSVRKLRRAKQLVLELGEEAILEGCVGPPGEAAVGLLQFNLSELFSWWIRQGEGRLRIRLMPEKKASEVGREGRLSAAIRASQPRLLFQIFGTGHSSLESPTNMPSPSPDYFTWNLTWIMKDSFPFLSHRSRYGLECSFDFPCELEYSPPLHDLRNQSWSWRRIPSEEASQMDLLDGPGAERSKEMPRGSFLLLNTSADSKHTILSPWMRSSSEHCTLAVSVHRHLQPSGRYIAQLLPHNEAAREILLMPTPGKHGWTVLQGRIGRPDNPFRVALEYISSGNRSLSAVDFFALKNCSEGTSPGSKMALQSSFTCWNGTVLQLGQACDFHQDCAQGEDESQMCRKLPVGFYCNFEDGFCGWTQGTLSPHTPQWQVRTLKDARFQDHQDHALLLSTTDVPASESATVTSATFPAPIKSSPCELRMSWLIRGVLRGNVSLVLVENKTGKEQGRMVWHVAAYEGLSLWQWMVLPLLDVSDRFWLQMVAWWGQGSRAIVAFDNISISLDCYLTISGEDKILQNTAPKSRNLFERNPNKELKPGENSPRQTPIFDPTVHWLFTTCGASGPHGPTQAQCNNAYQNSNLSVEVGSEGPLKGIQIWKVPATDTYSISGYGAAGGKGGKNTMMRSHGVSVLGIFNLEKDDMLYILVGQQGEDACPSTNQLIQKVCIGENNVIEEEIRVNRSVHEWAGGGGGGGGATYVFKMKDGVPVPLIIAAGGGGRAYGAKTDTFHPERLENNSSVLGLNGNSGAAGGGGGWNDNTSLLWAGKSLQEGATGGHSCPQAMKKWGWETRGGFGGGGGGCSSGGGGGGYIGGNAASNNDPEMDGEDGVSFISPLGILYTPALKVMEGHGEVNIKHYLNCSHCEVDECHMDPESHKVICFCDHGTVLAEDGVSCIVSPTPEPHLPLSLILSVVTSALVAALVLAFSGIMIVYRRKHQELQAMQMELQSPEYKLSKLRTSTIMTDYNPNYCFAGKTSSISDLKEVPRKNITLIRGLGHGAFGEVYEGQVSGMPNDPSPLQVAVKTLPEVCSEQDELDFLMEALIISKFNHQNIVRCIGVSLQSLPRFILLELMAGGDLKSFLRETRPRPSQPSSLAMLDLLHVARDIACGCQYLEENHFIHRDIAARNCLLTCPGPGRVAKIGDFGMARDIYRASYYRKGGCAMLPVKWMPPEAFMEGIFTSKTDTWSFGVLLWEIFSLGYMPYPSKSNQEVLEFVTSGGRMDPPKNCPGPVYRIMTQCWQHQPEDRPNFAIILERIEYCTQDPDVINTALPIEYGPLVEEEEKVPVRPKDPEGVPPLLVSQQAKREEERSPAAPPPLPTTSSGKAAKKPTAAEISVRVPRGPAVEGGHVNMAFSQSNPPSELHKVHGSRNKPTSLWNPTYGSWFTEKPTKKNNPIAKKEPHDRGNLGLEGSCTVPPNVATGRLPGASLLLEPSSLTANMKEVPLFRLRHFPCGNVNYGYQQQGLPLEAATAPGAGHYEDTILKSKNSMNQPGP
T3 sequence (P52333 781-1124): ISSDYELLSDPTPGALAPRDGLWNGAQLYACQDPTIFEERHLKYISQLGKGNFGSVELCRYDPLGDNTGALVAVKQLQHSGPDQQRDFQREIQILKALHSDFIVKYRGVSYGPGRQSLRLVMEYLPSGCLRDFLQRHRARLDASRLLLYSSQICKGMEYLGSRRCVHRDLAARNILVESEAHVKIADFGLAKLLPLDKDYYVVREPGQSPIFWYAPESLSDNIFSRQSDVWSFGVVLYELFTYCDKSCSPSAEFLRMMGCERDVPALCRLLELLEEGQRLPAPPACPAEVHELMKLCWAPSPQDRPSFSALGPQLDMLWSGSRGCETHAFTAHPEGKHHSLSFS
T1 sequence (P23458 849-1154): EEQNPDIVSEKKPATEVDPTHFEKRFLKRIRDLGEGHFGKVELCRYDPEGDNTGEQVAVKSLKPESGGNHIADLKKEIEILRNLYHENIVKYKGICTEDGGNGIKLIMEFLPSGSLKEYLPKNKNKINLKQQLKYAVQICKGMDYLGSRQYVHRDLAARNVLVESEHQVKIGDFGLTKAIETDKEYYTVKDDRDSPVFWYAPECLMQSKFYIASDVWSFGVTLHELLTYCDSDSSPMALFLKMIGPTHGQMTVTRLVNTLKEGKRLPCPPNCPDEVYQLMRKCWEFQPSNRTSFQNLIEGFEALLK

Regarding `O=C(NCc1ccco1)Nc1cc2cc(c1)OCCSc1cccc(c1)Nc1nc(ncc1Cl)N2` [Example D67, N-[6-Chloro-17-oxa-14-thia-2,4,8,24-tetraazatetracyclo[16.3.1.1(3,7).1(9,13)]tetracosa-1(22),3(24),4,6,9(23),10,12,18,20-nonaen-20-yl]-N′-(2-furylmethyl)urea trifluoroacetate], the IC50 (usually the concentration at which inhibition is half-maximal) in assay [1] (Table D1) is 3.2 nM; in assay [2] (Table D1) it was 1.8 nM; in assay [3] (Table D1) it was 8.4 nM; against TYK2 (Table D1) it was 2.4 nM; in assay [4] (Table D1, 90 μM ATP) it was above 1000 nM.

`CCCc1ccccc1NC(=O)Nc1ccc2cc1CCc1cccc(c1)Nc1ncc(Cl)c(n1)N2` [Example B105, N-[6-Chloro-2,4,8,22-tetraazatetracyclo[14.3.1.1(3,7).1(9,13)]docosa-1(20), 3(22),4,6,9(21),10,12,16,18-nonaen-12-yl]-N′-(2-propylphenyl)urea trifluoroacetate]: the 50% inhibitory concentration (IC50) was 3.9 nM in assay [1] (Table B1), 10 nM in assay [2] (Table B1), 43 nM in assay [3] (Table B1) and 13 nM on TYK2 (Table B1). Besides, the “ALK % of inhibition at a concentration of 500 nM or 1 mM” value (from here on “ALK % of inhibition”) in assay [4] (setting [5]) is reported as 52%.

As for `Cc1noc(C)c1NC(=O)Nc1ccc2cc1CCc1cccc(c1)Nc1ncc(Cl)c(n1)N2` [Example B94, N-[6-Chloro-2,4,8,22-tetraazatetracyclo[14.3.1.1(3,7).1(9,13)]docosa-1(20), 3(22),4,6,9(21),10,12,16,18-nonaen-12-yl]-N′-(3,5-dimethylisoxazol-4-yl)urea trifluoroacetate], the concentration for half-maximal inhibition (IC50) is 3.1 nM in assay [1] (Table B1); 3.8 nM in assay [2] (Table B1); 51 nM in assay [3] (Table B1); 13 nM against TYK2 (Table B1); above 1000 nM in assay [4] (setting [6]).

On to `NS(=O)(=O)N1CCCC(C(=O)Nc2ccc3cc2CCc2cccc(c2)Nc2ncc(Cl)c(n2)N3)C1` (stereo not drawn) [Example A73, 1-(Aminosulfonyl)-N-[6-chloro-2,4,8,22-tetraazatetracyclo[14.3.1.1(3,7).1(9,13)]docosa-1(20),3(22),4,6,9(21),10,12,16,18-nonaen-12-yl]piperidine-3-carboxamide trifluoroacetate], for which the IC50 in assay [1] (setting [7]) stood at 10 nM; in assay [2] (setting [8]), 0.7 nM; in assay [3] (setting [9]) it was 3 nM; at TYK2 it was 8 nM. Also, the “ALK % of inhibition” value in assay [4] (setting [10]) turned out to be 49%.

`O=C(Nc1ccccc1)Nc1cc2cc(c1)Nc1nc(ncc1Cl)Nc1cccc(c1)CC2` [Example B202, N-[6-Chloro-2,4,8,22-tetraazatetracyclo[14.3.1.1(3,7).1(9,13)]docosa-1(20),3(22),4,6,9(21),10,12,16,18-nonaen-11-yl]-N′-phenylurea trifluoroacetate]: the IC50 in assay [1] (Table B1) came to 36 nM; in assay [2] (Table B1), 56 nM; in assay [3] (Table B1), 101 nM; against TYK2 (Table B1), 205 nM; in assay [4] (setting [6]), 3600 nM.

On to `COc1cccc(S(=O)(=O)Nc2ccc3cc2CCc2cccc(c2)Nc2ncc(Cl)c(n2)N3)c1` [Example B157, N-[6-Chloro-2,4,8,22-tetraazatetracyclo[14.3.1.1(3,7).1(9,13)]docosa-1(20), 3(22),4,6,9(21),10,12,16,18-nonaen-12-yl]-3-methoxybenzenesulfonamide trifluoroacetate], for which the IC50 amounted to 0.51 nM in assay [1] (Table B1), 0.15 nM in assay [2] (Table B1), 0.3 nM in assay [3] (Table B1) and 0.62 nM on TYK2 (Table B1). In assay [4] (setting [5]), the “ALK % of inhibition” value came out at 87%.

As for `O=C(NCCN1CCNCC1)Nc1ccc2cc1CCc1cccc(c1)Nc1ncc(Cl)c(n1)N2` [Example B260, N-[6-Chloro-2,4,8,22-tetraazatetracyclo[14.3.1.1(3,7).1(9,13)]docosa-1(20),3(22),4,6,9(21),10,12,16,18-nonaen-12-yl]-N′-(2-piperazin-1-ylethyl)urea trihydrochloride], the IC50 in assay [1] (Table B1) is 4.7 nM; in assay [2] (Table B1), 9.9 nM; in assay [3] (Table B1) it was 51 nM; on TYK2 (Table B1) it was 20 nM. The “ALK % of inhibition” value in assay [4] (setting [5]) amounted to 26%.

Regarding `O=C(Nc1ccc2cc1CCc1cccc(c1)Nc1ncc(Cl)c(n1)N2)NC12CC3CC(CC(C3)C1)C2` [Example B127, N-1-Adamantyl-N′-[6-chloro-2,4,8,22-tetraazatetracyclo[14.3.1.1(3,7).1(9,13)]docosa-1(20),3(22),4,6,9(21),10,12,16,18-nonaen-12-yl]urea trifluoroacetate], the concentration for half-maximal inhibition (IC50) in assay [1] (Table B1) turned out to be 25 nM; in assay [2] (Table B1), 27 nM; in assay [3] (Table B1), 182 nM; against TYK2 (Table B1), 89 nM. Also, in assay [4] (setting [5]), the “ALK % of inhibition” value is 6.1%.

On to `CS(=O)(=O)N1CC[C@@H](NC(=O)Nc2ccc3cc2CCc2cccc(c2)Nc2ncc(Cl)c(n2)N3)C1` [Example B178, N-[6-Chloro-2,4,8,22-tetraazatetracyclo[14.3.1.1(3,7).1(9,13)]docosa-1(20),3(22),4,6,9(21),10,12,16,18-nonaen-12-yl]-N′-[(3R)-1-(methylsulfonyl)pyrrolidin-3-yl]urea trifluoroacetate], for which the IC50 in assay [1] (Table B1) was 0.82 nM; in assay [2] (Table B1), 1.1 nM; in assay [3] (Table B1), 17 nM; at TYK2 (Table B1), 2.6 nM. Also, the “ALK % of inhibition” value in assay [4] (setting [5]) was 24%.

`O=C(Nc1ccc2cc1CCc1cncc(c1)Nc1ncc(Cl)c(n1)N2)N1CCN(c2ncccn2)CC1` [Example B309, N-[6-Chloro-2,4,8,18,22-pentaazatetracyclo[14.3.1.1(3,7).1(9,13)]docosa-1(20),3(22),4,6,9(21),10,12,16,18-nonaen-12-yl]-4-pyrimidin-2-ylpiperazine-1-carboxamide tris(trifluoroacetate)]: the IC50 was 21 nM in assay [1] (Table B1), 133 nM in assay [2] (Table B1), above 400 nM in assay [3] (Table B1) and 67 nM against TYK2 (Table B1). Also, the “ALK % of inhibition” value in assay [4] (percentage inhibition of the example compound at a concentration of 500 nM or 1 mM (not specified which)) is recorded as 68%.

On to `Clc1cnc2nc1Nc1cccc(c1)CCCNc1cccc(c1)N2` [Example D77, 6-Chloro-2,4,8,17,24-pentaazatetracyclo[16.3.1.1(3,7).1(9,13)]tetracosa-1(22),3(24),4,6,9(23),10,12,18,20-nonaene bis(trifluoroacetate)], for which the IC50 was 8.9 nM in assay [1] (Table D1); 3.1 nM in assay [2] (Table D1); 11 nM in assay [3] (Table D1); 5.6 nM on TYK2 (Table D1); 400 nM in assay [4] (Table D1, 90 μM ATP).

Consider `CNC(=O)N1CCC(CC(=O)Nc2ccc3cc2CCc2cncc(c2)Nc2ncc(Cl)c(n2)N3)C1` (stereo not drawn) [Example A93, 3-(2-{[6-Chloro-2,4,8,18,22-pentaazatetracyclo[14.3.1.1(3,7).1(9,13)]docosa-1(20),3(22),4,6,9(21),10,12,16,18-nonaen-12-yl]amino}-2-oxoethyl)-N-methylpyrrolidine-1-carboxamide bis(trifluoroacetate)], for which the IC50 came to 22 nM in assay [1] (setting [7]), 24 nM in assay [2] (setting [8]), 112 nM in assay [3] (setting [9]) and 43 nM on TYK2. The “ALK % of inhibition” value in assay [4] (setting [10]) is listed as 30%.

Consider `O=C(Nc1ccc2cc1CCc1cccc(c1)Nc1ncc(Cl)c(n1)N2)Nc1ccccc1OC(F)(F)F` [Example B131, N-[6-Chloro-2,4,8,22-tetraazatetracyclo[14.3.1.1(3,7).1(9,13)]docosa-1(20), 3(22),4,6,9(21),10,12,16,18-nonaen-12-yl]-N′-[2-(trifluoromethoxy)phenyl]urea trifluoroacetate], for which the half-inhibitory concentration (IC50) in assay [1] (Table B1) stood at 7.3 nM; in assay [2] (Table B1), 13 nM; in assay [3] (Table B1), 63 nM; on TYK2 (Table B1), 33 nM. Besides, the “ALK % of inhibition” value in assay [4] (setting [5]) is recorded as 5.9%.

Take `Brc1cnc2nc1Nc1cccc(c1)CCc1cccc(c1)N2` [Example B3, 6-Bromo-2,4,8,22-tetraazatetracyclo[14.3.1.1(3,7).1(9,13)]docosa-1(20),3(22),4,6,9(21),10,12,16,18-nonaene trifluoroacetate]: the IC50 came out at 9.2 nM in assay [1] (Table B1); 3.5 nM in assay [2] (Table B1); 67 nM in assay [3] (Table B1); 15 nM against TYK2 (Table B1); 976 nM in assay [4] (setting [6]).

As for `O=[N+]([O-])c1ccc(CN2CCN(Cc3cc4cc(c3)Nc3nc(ncc3Cl)Nc3cccc(c3)CC4)CC2)cc1` [Example B194, 6-Chloro-11-{[4-(4-nitrobenzyl)piperazin-1-yl]methyl}-2,4,8,22-tetraazatetracyclo[14.3.1.1(3,7).1(9,13)]docosa-1(20),3(22),4,6,9(21),10,12,16,18-nonaene tris(trifluoroacetate)], the IC50 in assay [1] (Table B1) is 36 nM; in assay [2] (Table B1), 12 nM; in assay [3] (Table B1), 108 nM; on TYK2 (Table B1), 251 nM; in assay [4] (setting [6]) it was above 1000 nM.
